TGI data for ten molecules are collected here from PubChem BioAssay (NCI).

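Dose response: 5 concentrations. Exposure: 48 h. Format: 96-well plates. Endpoint: linear interpolation; highest concentration if not reached. TGI: concentration producing complete growth inhibition.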

Some test systems named below: SR leukemia; EKVX NSCLC; SF-539 CNS; SW-620 colon; NCI-H522 lung; T-47D breast; MDA-N; NCI-H460 lung; UACC-257 melanoma; COLO 205 colon.
Common to all, as to experiment: NCI tumour cell line growth inhibition, 48 h

With `COc1ccc(Nc2ccc3ccccc3c2-c2c(O)ccc3ccccc23)cc1`, the TGI in the experiment with SR leukemia is 30.6 µM; in the experiment on EKVX NSCLC, 31.8 µM; in the experiment with SF-539 CNS, 51.1 µM; in the experiment on SW-620 colon, 28.2 µM; with NCI-H522 lung, 32.8 µM; in the experiment on T-47D breast, 34 µM. Further, the TGI in the experiment on MDA-N is 29.4 µM; in the experiment with NCI-H460 lung it was 30 µM; in the experiment with UACC-257 melanoma, 58.9 µM; in the experiment on COLO 205 colon, 47 µM.
As for `Cn1c(=O)oc2nc(-c3ccccc3)cc(C(F)(F)F)c21`, the TGI in the experiment on SR leukemia, in the experiment with EKVX NSCLC, in the experiment with SF-539 CNS, with SW-620 colon, in the experiment on NCI-H522 lung and with T-47D breast was more than 100 µM in each case. The TGI with MDA-N, in the experiment with NCI-H460 lung, with UACC-257 melanoma and with COLO 205 colon was more than 100 µM throughout.
For `CC(Oc1ccccc1Cl)C(=O)NN1C(=O)CSC1c1ccccc1` (stereo not given), the TGI with SR leukemia, in the experiment on EKVX NSCLC, in the experiment on SF-539 CNS, with SW-620 colon, with NCI-H522 lung and in the experiment with T-47D breast was more than 100 µM in each case. The TGI with MDA-N, in the experiment with NCI-H460 lung, in the experiment with UACC-257 melanoma and with COLO 205 colon was more than 100 µM throughout.
In the case of `Cn1c(-c2ccc(/C=N/NC(=S)N/N=C/c3ccc(-c4c[n+]5ccsc5n4C)cc3)cc2)c[n+]2ccsc12`, the TGI in the experiment with SR leukemia, with EKVX NSCLC, with SF-539 CNS, with SW-620 colon, in the experiment on NCI-H522 lung and in the experiment on T-47D breast was more than 100 µM throughout. Also, the TGI in the experiment with MDA-N, in the experiment with NCI-H460 lung, in the experiment with UACC-257 melanoma and in the experiment on COLO 205 colon was more than 100 µM throughout.
Regarding `NN=C(CC(O)(C(F)(F)Cl)C(F)(F)Cl)CC(O)(C(F)(F)Cl)C(F)(F)Cl`, the TGI in the experiment with SR leukemia, in the experiment on EKVX NSCLC, with SF-539 CNS, in the experiment on SW-620 colon, with NCI-H522 lung and in the experiment with T-47D breast was more than 10 µM each time. The TGI in the experiment with MDA-N, in the experiment with NCI-H460 lung, with UACC-257 melanoma and in the experiment on COLO 205 colon was more than 10 µM in each case.
As for `O=[N+]([O-])c1cccc(N=Nc2c(O)c(S(=O)(=O)O)cc3cc(S(=O)(=O)O)ccc23)c1`, the TGI in the experiment with SR leukemia, in the experiment with EKVX NSCLC, with SF-539 CNS, in the experiment on SW-620 colon, in the experiment with NCI-H522 lung and with T-47D breast was more than 100 µM in each case. Besides, the TGI with MDA-N, in the experiment on NCI-H460 lung, with UACC-257 melanoma and with COLO 205 colon was more than 100 µM each time.
Take `CN1CC2=C(NC(=S)NC2c2ccccc2)/C(=C/c2ccccc2)C1` (stereo not given): the TGI with SR leukemia, in the experiment on EKVX NSCLC, in the experiment with SF-539 CNS, with SW-620 colon, with NCI-H522 lung and with T-47D breast was more than 100 µM throughout. The TGI in the experiment on MDA-N, in the experiment on NCI-H460 lung, in the experiment on UACC-257 melanoma and with COLO 205 colon was more than 100 µM throughout.
Consider `CC(C)C(C/C=C1\CC(CO)(COC(=O)C2CCCCC2)OC1=O)C(C)C` (stereo not given), for which the TGI in the experiment on SR leukemia is more than 100 µM; in the experiment with EKVX NSCLC it was 41.2 µM; with SF-539 CNS it was 36.3 µM; with SW-620 colon, 40.5 µM; in the experiment with NCI-H522 lung, 31.8 µM; in the experiment with T-47D breast, 48 µM. In addition, the TGI in the experiment with MDA-N was found to be 59.3 µM; in the experiment with NCI-H460 lung, 76 µM; with UACC-257 melanoma, 84.1 µM; in the experiment with COLO 205 colon, 23.6 µM.
For the molecule `COc1ccc(C(=O)CC(c2ccccc2)[C@H]2C(c3ccc(OC)cc3)=Nc3c(nc(SC)n(C)c3=O)NC2c2ccccc2)cc1` (stereo not given in full), the TGI in the experiment on SR leukemia, in the experiment with EKVX NSCLC, in the experiment on SF-539 CNS, in the experiment on SW-620 colon, with NCI-H522 lung and in the experiment with T-47D breast was more than 100 µM each time. Moreover, the TGI with MDA-N, in the experiment with NCI-H460 lung, with UACC-257 melanoma and with COLO 205 colon was more than 100 µM throughout.
For the molecule `CC(C)=CCNc1nc(Cl)nc2nc[nH]c12`, the TGI in the experiment with SR leukemia, in the experiment on EKVX NSCLC, with SF-539 CNS, with SW-620 colon, with NCI-H522 lung and with T-47D breast was more than 100 µM throughout. The TGI in the experiment with MDA-N was more than 100 µM; in the experiment with NCI-H460 lung it was 68.8 µM; in the experiment with UACC-257 melanoma it was more than 100 µM; with COLO 205 colon, more than 100 µM.
